Test results: article PMC2776708 (Bioorganic & medicinal chemistry letters, 2009)
Like-named read-outs stand apart in the source and are kept apart here.

How the values were obtained:
WNV NS2B-NS3 proteinase [1] = target: T1, WNV NS2B-NS3 proteinase (West Nile virus, UniProt Q9Q6P4); experiment: WNV NS2B-NS3 proteinase activity assay with Pyr-RTKR-AMC fluorogenic substrate; type: biochemical; conditions: for inhibitory activity (in words): qualitative statement
Stability = type: physicochemical; conditions: qualitative statement
[2] = Stability in the in vitro assay buffer without enzyme; type: physicochemical; conditions: absence of enzyme, Figure 2
WNV NS2B-NS3 proteinase [3] = target: T1, WNV NS2B-NS3 proteinase; experiment: Stability in the in vitro assay buffer with WNV NS2B-NS3 proteinase; conditions: Figure 2
WNV NS2B-NS3 proteinase [4] = target: T1, WNV NS2B-NS3 proteinase; conditions: products of ester hydrolysis; cited from earlier work

T1 sequence (Q9Q6P4 1506-1683): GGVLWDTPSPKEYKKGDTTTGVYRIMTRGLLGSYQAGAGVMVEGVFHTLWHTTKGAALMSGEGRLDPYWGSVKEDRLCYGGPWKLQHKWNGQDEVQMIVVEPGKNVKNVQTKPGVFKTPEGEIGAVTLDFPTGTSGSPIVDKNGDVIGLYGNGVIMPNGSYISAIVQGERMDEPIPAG
T1 sequence (Q9Q6P4 1375-1505): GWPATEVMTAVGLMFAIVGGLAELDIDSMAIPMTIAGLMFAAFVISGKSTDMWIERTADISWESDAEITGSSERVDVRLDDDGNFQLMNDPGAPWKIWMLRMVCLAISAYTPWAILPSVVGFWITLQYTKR

## COc1ccc(S(=O)(=O)n2nc(OC(=O)c3ccccc3)cc2N)cc1 [Compound 1]
WNV NS2B-NS3 proteinase [1]
  IC50: 0.105 µM

## COc1ccc(S(=O)(=O)n2nc(OC(=O)c3cccs3)cc2N)cc1 [Compound 2]
WNV NS2B-NS3 proteinase [1]
  IC50: 0.11 µM

## COc1ccc(S(=O)(=O)n2nc(OC(=O)c3c(F)cccc3F)cc2N)cc1 [Compound 7a]
Stability
  stability in pH 8 buffer (in words): significantly more stable

## COc1ccc(S(=O)(=O)n2nc(OC(=O)c3ccc(F)cc3F)cc2N)cc1 [Compound 7e]
[2]
  stability in assay buffer (in words): relatively stable
WNV NS2B-NS3 proteinase [3]
  stability in presence of enzyme (in words): degraded rapidly

## COc1ccc(S(=O)(=O)n2nc(OC(=O)c3ccccc3C)cc2N)cc1 [Compound 7f]
WNV NS2B-NS3 proteinase [1]
  inhibitory activity (in words): retained its micromolar inhibitory activity

## COc1ccc(S(=O)(=O)n2nc(OC(=O)c3c(Cl)cccc3Cl)cc2N)cc1 [Compound 7n]
WNV NS2B-NS3 proteinase [1]
  IC50: > 100 µM
  inhibitory activity (in words): complete loss of activity

## COc1ccc(S(=O)(=O)n2nc(OC(=O)c3ccccc3OC)cc2N)cc1 [Compound 7o]
WNV NS2B-NS3 proteinase [1]
  inhibitory activity (in words): inactive

## COc1ccc(S(=O)(=O)n2nc(OC(=O)c3ccccc3[N+](=O)[O-])cc2N)cc1 [Compound 7p]
WNV NS2B-NS3 proteinase [1]
  IC50: > 100 µM
  inhibitory activity (in words): inactive

## COc1ccc(Cn2nc(C)cc2O)cc1 [Compound 8, 1-(4-methoxybenzyl)-3-methyl-1H-pyrazol-5-ol]
WNV NS2B-NS3 proteinase [4]
  IC50: > 100 µM

## COc1ccc(Cn2nc(C)cc2OC(=O)c2ccccc2)cc1 [Compound 10a]
WNV NS2B-NS3 proteinase [3]
  stability in presence of enzyme (in words): approximately the same in the presence or absence of the enzyme
Stability
  stability in pH 8 buffer (in words): significantly more stable

## COc1ccc(Cn2nc(C)cc2CC(O)c2ccccc2)cc1 (stereo not shown) [Compound 12a]
WNV NS2B-NS3 proteinase [1]
  IC50: > 100 µM

## COc1ccc(Cn2nc(C)cc2CC(O)c2c(F)cccc2F)cc1 (stereo not shown) [Compound 12b]
WNV NS2B-NS3 proteinase [1]
  IC50: > 100 µM

## COc1ccc(Cn2nc(C)cc2CC(=O)c2ccccc2)cc1 [Compound 13a]
WNV NS2B-NS3 proteinase [1]
  IC50: > 100 µM

## COc1ccc(Cn2nc(C)cc2/C=C/c2c(F)cccc2F)cc1 [Compound 14]
Stability
  stability in pH 8 buffer (in words): highly stable

## Cc1cc(NC(=O)c2ccccc2)n(-c2ccccc2)n1 [Compound 15]
Stability
  stability in pH 8 buffer (in words): highly stable
